These results are taken from patent US20240247042A1, “GLUCAGON LIKE PEPTIDE COMPOUNDS” (Novartis AG, priority 2021, published 2024).

Structures are written as SMILES.

One assay concerns the target human GLP1R (hGLP1R) (Homo sapiens, UniProt P43220). The experiment in a line: Human GLP1R cAMP agonist assay (GloSensor). It counts as cell-based.
In another assay the target is human GLP1R (Homo sapiens, UniProt P43220). Nature of the assay: Human GLP1R DERET recycling assay. Conditions: for Receptor recycled mean: maximum receptor recycled as proportion of amount internalized; for T1/2 mean: rate at which receptor recycled back to the membrane after Exendin 9-39. It counts as cell-based.
Sequence of human GLP1R (P43220 24-463): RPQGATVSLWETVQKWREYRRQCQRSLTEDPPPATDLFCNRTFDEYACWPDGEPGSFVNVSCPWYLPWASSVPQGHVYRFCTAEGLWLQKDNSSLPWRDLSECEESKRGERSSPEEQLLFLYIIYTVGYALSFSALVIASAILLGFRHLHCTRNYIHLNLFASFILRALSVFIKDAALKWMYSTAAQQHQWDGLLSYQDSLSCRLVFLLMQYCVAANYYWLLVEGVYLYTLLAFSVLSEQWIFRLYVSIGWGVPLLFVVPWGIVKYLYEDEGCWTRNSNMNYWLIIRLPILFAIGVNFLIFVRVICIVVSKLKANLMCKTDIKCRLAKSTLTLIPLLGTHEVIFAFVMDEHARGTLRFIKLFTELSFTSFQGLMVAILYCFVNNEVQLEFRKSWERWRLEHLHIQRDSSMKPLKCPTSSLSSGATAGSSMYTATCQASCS

Sequence of human GLP1R (hGLP1R) (P43220 24-463): as above
Description for human GLP1R (hGLP1R): Compounds described herein were tested in the following cellular assays that measures the intracellular cAMP concentration. The cAMP is generated by the activation of GLP1R. EC50 is defined as the concentration of the compound that leads to half of the maximum response (after baseline correction).
The agonist activity of compounds was determined using the GloSensor™ cAMP Assay (Promega Corp.), which measures changes in the intracellular concentration of cAMP after ligand activation of GPCRs. The assay uses a biosensor encoded by pGloSensor™-22F cAMP plasmid (Promega, cat #E2301) with cAMP binding domains fused to a mutant form of Photinus pyralis luciferase. Binding to cAMP causes conformational changes that promote large increases in light output, which can be measured by a luminescence detector. […] The assay was started the following morning by adding an equal volume of CO2-independent media containing 4% v/v dilution of the GloSensor substrate (Promega, cat #E1291) to all wells. The cell plate was incubated at RT for 2 h in the dark. The Biomek i7 (Beckman Coulter) instrument was used for the liquid handling steps. To generate duplicate dose response curves, 3-fold serially diluted compounds were added in to the cell assay plate to a final volume of 60 μL with final concentrations ranging from 100 nM through 0.03 pM in CO2-independent media containing 0.1% BSA, 0.5 mM IBMX and 0.4% DMSO. […] Curve fitting for EC50 determinations was performed in the Helios module of the software package DAVID. The 4-parameter logistic model, Hill slope was used: y=Ainf+(A0−Ainf)/(1+(x/AC50)^Hill Slope), where y is the functional response; x is the compound concentration; A0 is the minimum value (at 0 dose); Ainf is the maximum value (at infinite dose); AC50 corresponds to the point of inflection (i.e., the point on the sigmoid shaped curve halfway between A0 and Ainf). The EC50 value was represented by the AC50 value calculated from Helios in μM. Emax is the maximal activity detected within the concentration range, derived from the fitted curve.
The HEK293-SNAP-hGLP1R stable cell clone that yielded the desired response was used for human GLP1R cAMP agonist assay.

As for `CCCCCCCCCCC[C@@](CCCCCCCCCCC(=O)O)(C(=O)O)C(=O)NCCOCCOCCOCCOCCOCCOCCOCCOCCOCCOCCOCCOCCOCCOCCOCCOCCOCCOCCOCCOCCOCCOCCOCCOCCC(=O)NCCCC[C@H](NC(=O)[C@H](C)NC(=O)[C@H](C)NC(=O)[C@H](CCC(N)=O)NC(=O)CNC(=O)[C@H](CCC(=O)O)NC(=O)[C@H](CC(C)C)NC(=O)[C@H](Cc1ccc(O)cc1)NC(=O)[C@H](CO)NC(=O)[C@H](CO)NC(=O)[C@@H](NC(=O)[C@H](CC(=O)O)NC(=O)[C@H](CO)NC(=O)[C@@H](NC(=O)[C@H](Cc1ccccc1)NC(=O)[C@@H](NC(=O)CNC(=O)[C@H](CCC(=O)O)NC(=O)C(C)(C)NC(=O)[C@@H](N)Cc1c[nH]cn1)[C@@H](C)O)[C@@H](C)O)C(C)C)C(=O)N[C@@H](CCC(=O)O)C(=O)N[C@@H](Cc1ccccc1)C(=O)N[C@H](C(=O)N[C@@H](C)C(=O)N[C@@H](Cc1c[nH]c2ccccc12)C(=O)N[C@@H](CC(C)C)C(=O)N[C@H](C(=O)N[C@@H](CCCNC(=N)N)C(=O)NCC(=O)N[C@@H](CCCNC(=N)N)C(=O)NCC(=O)O)C(C)C)[C@@H](C)CC` [Compound 2], the maximum response (Emax) – broadly, the greatest response seen or fitted, relative to the assay's reference – at human GLP1R (hGLP1R) was determined as 115%. In addition, at human GLP1R, the Receptor recycled mean is reported as 68% and the T1/2 mean was 1.19 h.

At human GLP1R, `CCCCCCCCCCC[C@](CCCCCCCCCCC(=O)O)(C(=O)O)C(=O)NCCOCCOCCOCCOCCOCCOCCOCCOCCOCCOCCOCCOCCOCCOCCOCCOCCOCCOCCOCCOCCOCCOCCOCCOCCC(=O)NCCCC[C@H](NC(=O)[C@H](C)NC(=O)[C@H](C)NC(=O)[C@H](CCC(N)=O)NC(=O)CNC(=O)[C@H](CCC(=O)O)NC(=O)[C@H](CC(C)C)NC(=O)[C@H](Cc1ccc(O)cc1)NC(=O)[C@H](CO)NC(=O)[C@H](CO)NC(=O)[C@@H](NC(=O)[C@H](CC(=O)O)NC(=O)[C@H](CO)NC(=O)[C@@H](NC(=O)[C@H](Cc1ccccc1)NC(=O)[C@@H](NC(=O)CNC(=O)[C@H](CCC(=O)O)NC(=O)C(C)(C)NC(=O)[C@@H](N)Cc1c[nH]cn1)[C@@H](C)O)[C@@H](C)O)C(C)C)C(=O)N[C@@H](CCC(=O)O)C(=O)N[C@@H](Cc1ccccc1)C(=O)N[C@H](C(=O)N[C@@H](C)C(=O)N[C@@H](Cc1c[nH]c2ccccc12)C(=O)N[C@@H](CC(C)C)C(=O)N[C@H](C(=O)N[C@@H](CCCNC(=N)N)C(=O)NCC(=O)N[C@@H](CCCNC(=N)N)C(=O)NCC(=O)O)C(C)C)[C@@H](C)CC` [Compound 3] gave a Receptor recycled mean of 69% and a T1/2 mean of 1.24 h.

Regarding `CC[C@H](C)[C@H](NC(=O)[C@H](Cc1ccccc1)NC(=O)[C@H](CCC(=O)O)NC(=O)[C@H](CCCCNC(=O)CCOCCOCCOCCOCCOCCOCCOCCOCCOCCOCCOCCOCCOCCOCCOCCOCCOCCOCCOCCOCCOCCOCCOCCOCCNC(=O)C(CCCCCCCCCCCCCC(=O)O)(CCCCCCCCCCCCCC(=O)O)C(=O)O)NC(=O)[C@H](C)NC(=O)[C@H](C)NC(=O)[C@H](CCC(N)=O)NC(=O)CNC(=O)[C@H](CCC(=O)O)NC(=O)[C@H](CC(C)C)NC(=O)[C@H](Cc1ccc(O)cc1)NC(=O)[C@H](CO)NC(=O)[C@H](CO)NC(=O)[C@@H](NC(=O)[C@H](CC(=O)O)NC(=O)[C@H](CO)NC(=O)[C@@H](NC(=O)[C@H](Cc1ccccc1)NC(=O)[C@@H](NC(=O)CNC(=O)[C@H](CCC(=O)O)NC(=O)C(C)(C)NC(=O)[C@@H](N)Cc1c[nH]cn1)[C@@H](C)O)[C@@H](C)O)C(C)C)C(=O)N[C@@H](C)C(=O)N[C@@H](Cc1c[nH]c2ccccc12)C(=O)N[C@@H](CC(C)C)C(=O)N[C@H](C(=O)N[C@@H](CCCNC(=N)N)C(=O)NCC(=O)N[C@@H](CCCNC(=N)N)C(=O)NCC(=O)O)C(C)C` [Compound 8], the maximum response (Emax) at human GLP1R (hGLP1R) was 106%.
